Assay results as given in ChEMBL document CHEMBL5370581, “NMR-Metabolomic Profiling and Genome Mining Drive the Discovery of Cyclic Decapeptides from a Marine Streptomyces” (J Nat Prod, 2023).
pIC50: −log10 of the molar value.

Experiments:
Type in all cases: functional, cell-based
A549/TR = assay: Cytotoxicity against human A549/Taxol cells assessed as reduction in cell viability incubated for 48 hrs by MTT assay
NCI-H1299 = assay: Cytotoxicity against human NCI-H1299 cells assessed as reduction in cell viability incubated for 48 hrs by MTT assay; settings: NCI-H1299, 48 h
NCI-H1975 = assay: Cytotoxicity against human NCI-H1975 cells assessed as reduction in cell viability incubated for 48 hrs by MTT assay; settings: NCI-H1975, 48 h
HEL = assay: Cytotoxicity against HEL cells assessed as reduction in cell viability incubated for 72 hrs by WST assay; settings: Homo sapiens
HCT-116 = assay: Cytotoxicity against human HCT-116 cells assessed as reduction in cell viability incubated for 72 hrs by SRB assay; settings: HCT-116, 72 h
K562 = assay: Cytotoxicity against human K562 cells assessed as reduction in cell viability incubated for 72 hrs by SRB assay; settings: K562, 72 h
MDA-MB-231 = assay: Cytotoxicity against human MDA-MB-231 cells assessed as reduction in cell viability incubated for 72 hrs by SRB assay; settings: MDA-MB-231, 72 h
A549 = assay: Cytotoxicity against human A549 cells assessed as reduction in cell viability incubated for 72 hrs by SRB assay; settings: A549, 72 h
SK-HEP1 = assay: Cytotoxicity against human SK-HEP1 cells assessed as reduction in cell viability incubated for 72 hrs by SRB assay; settings: SK-HEP1, 72 h
SNU-638 = assay: Cytotoxicity against human SNU-638 cells assessed as reduction in cell viability incubated for 72 hrs by SRB assay; settings: SNU-638, 72 h

`CC(C)C[C@@H]1NC(=O)[C@H](Cc2ccccc2)N(C)C(=O)[C@@H](C)NC(=O)[C@H](C(C)C)N(C)C(=O)CCNC(=O)[C@H](C)N(C)C(=O)[C@H](C(C)C)NC(=O)[C@H](Cc2c[nH]c3ccccc23)N(C)C(=O)[C@@H]2CCCNN2C(=O)[C@H](CO)N(C)C1=O` showed a pIC50 (A549/TR) of 4.77, a pIC50 (NCI-H1299) of 4.96 and a pIC50 (NCI-H1975) of 4.62. The pIC50 (HEL) was 4.85.

With `CC[C@H](C)[C@@H]1NC(=O)[C@H](Cc2c[nH]c3ccccc23)N(C)C(=O)[C@@H]2CCCNN2C(=O)[C@H](CO)N(C)C(=O)[C@H](CC(C)C)NC(=O)[C@H](Cc2ccccc2)N(C)C(=O)[C@@H](C)NC(=O)[C@H](C(C)C)N(C)C(=O)CCNC(=O)[C@H](C)N(C)C1=O` the pIC50 (HCT-116) was 6.70, the pIC50 (A549/TR) was 4.72 and the pIC50 (K562) was 6.70. The pIC50 (MDA-MB-231) was 6.70, the pIC50 (NCI-H1299) was 4.96 and the pIC50 (NCI-H1975) was 5.10. For the same molecule, the pIC50 (A549) was 6.70, the pIC50 (HEL) was 4.89 and the pIC50 (SK-HEP1) was 6.70. The pIC50 (SNU-638) was 6.70.

`COc1cccc2c1C(=O)c1c(O)c3c(c(O)c1C2=O)C[C@@](O)(C(=O)CO)C[C@@H]3O[C@H]1C[C@H](N)[C@H](O)[C@H](C)O1` [DOXORUBICIN] showed a pIC50 (A549/TR) of 5.80, a pIC50 (NCI-H1299) of 5.85 and a pIC50 (NCI-H1975) of 6.92. The pIC50 (HEL) was 7.30.

`COc1cc([C@@H]2c3cc4c(cc3[C@@H](O[C@@H]3O[C@@H]5CO[C@@H](C)O[C@H]5[C@H](O)[C@H]3O)[C@H]3COC(=O)[C@H]23)OCO4)cc(OC)c1O` [ETOPOSIDE] gave a pIC50 (HCT-116) of 6.40, a pIC50 (K562) of 6.40 and a pIC50 (MDA-MB-231) of 6.40. It also gave a pIC50 (A549) of 6.40, a pIC50 (SK-HEP1) of 6.40 and a pIC50 (SNU-638) of 6.40.
